According to patent US6649797B2, “Compounds and methods of use to treat infectious diseases” (The Picower Institute for Medical Research, priority 1996, dated 2003):

Experiments:
[1] = target: T1, MA associated with the HIV-1 pre-integration complex (Human immunodeficiency virus type 1 group M subtype B, UniProt P05890+P05959); assay: Reaction of [14C]CNI-H0294 with MA in HIV-1 pre-integration complexes after borohydride reduction; format: binding; details: 10 μM [14C]-CNI-H0294, borohydride reduction, HIV-1-infected cell extracts
T1 construct: MA is made from the Gag precursor and RT is made from the Gag-Pol precursor; endogenous in cells; host or cells: cytoplasmic extract of H9 cells infected with HIV-1RF
Description: Cytoplasmic extracts from HIV-1RF-infected H9 cells were treated with [^14C]CNI-H0294 (10 μM). After borohydride reduction the extracts were immunoprecipitated with anti-MA (αMA), anti-IN (αIN), or pre-immune serum (PI). […] Immunoprecipitated radioactivity was quantified in a scintillation counter.
Cytoplasmic lysates prepared from HIV-1-infected cells were treated with 10 μM of [^14C]-labeled CNI-H0294 (specific activity 5×10^4 cpm/nmol) in 1 ml extraction buffer adjusted to 0.14 M NaCl. Sodium borohydride was then added to a final concentration 10 mM and samples were incubated 1 hr at room temperature prior to immunoprecipitation to reduce double bonds of Schiff bases to an irreversible secondary amine. Immunoprecipitation was performed as described above, but beads were stringently washed three times with PBS supplemented with 0.1% SDS, 1% sodium deoxycholate, 1 μg/ml each of aprotinin and leupeptin, and 1 mM PMSF.
To discriminate between these two possibilities, cytoplasmic extracts of HIV-1-infected cells were treated with [^14C]-CNI-H0294 and then with sodium borohydride, to reduce the reversible Schiff bases hypothesized to form between the compound and the lysines of MA NLS and convert the attached drug molecules to irreversible adducts. […] Without borohydride treatment, no radioactivity was immunoprecipitated with MA.

[2] = In vitro metabolism with mouse liver post-mitochondrial supernatant and NADPH; format: in vitro ADME
Description: Several female ND4 Swiss Webster mice were euthanized by carbon dioxide inhalation and the livers excised and rinsed with ice cold phosphate buffered saline (pH 7.4). The livers were minced, gently homogenized in 50 mM phosphate buffer (pH 7.4) with a Dounce homogenizer, and centrifuged at 9600× g for 20 min. The post-mitochondrial supernatant was kept, glycerol added to 20%, and frozen at −70° C in 1.0 ml aliquots until used. For each incubation, 1.0 ml of a 1.0 mg/ml drug solution was added to 3.0 ml of 50 mM phosphate buffer (pH 7.4), 1.0 ml of 2 mg/ml NADPH in 50 mM phosphate (pH 7.4), and 1.0 ml of the post-mitochondrial supernatant. Five hundred μl of each incubate was then immediately transferred to an ice-cold tube to provide the zero-time sample, and addition 500 μl aliquots removed to ice-cold tubes at 8, 15, 30, and 60 min. The samples were then extracted, and analyzed by HPLC as described in section 7.1. Control incubations were also performed where drug or post-10 mitochondrial supernatant was omitted. […] Peaks in the CNI compound incubations which increased over time, and were not present in control samples lacking the enzyme preparation were treated as putative metabolites.

[3] = target: T2, pseudovirion-derived nucleoprotein complexes / karyopherin α (Human immunodeficiency virus type 1 group M subtype B, UniProt P04591); assay: Binding of pseudovirion-derived nucleoprotein complexes to GST-karyopherin α; format: biochemical, HIV-1; details: various concentrations
T2 construct: composed exclusively of Gag (MA, CA, NC, p6) and Env (gp41 and gp120) proteins; endogenous in cells; host or cells: cytoplasmic lysate of H9 cells inoculated with HIV-like gag-env pseudovirions (Haffar et al. 1990)
Description: Cytoplasmic lysates of H9 cells infected with HIV-1RF (upper panel) or HIV-like pseudovirions (bottom panel) were treated for 2 hours with various concentrations of CNI-H0294, and were then mixed with GST-karyopherin α immobilized on glutathione Sepharose beads. HIV-1 DNA or RNA that co-precipitated with karyopherin α was quantified as in A and B.
H9 cells were infected with HIV-1 or HIV-like pseudovirions (Haffar, et al., 1990, J. Virol., 64:2653-2659) at a multiplicity adjusted according to p24 content (50 ng p24 per 10^6 cells) The MA NLS^− virus contains substitutions of isoleucine residues for lysines in positions 26 and 27 of MA in an NLHX backbone (Westervelt., et al., 1992, J. Virol. 66:2577-2582), thus inactivating the NLS. The Vpr^− virus has the initiating ATG of the vpr gene changed to GTG, thus abolishing expression of this gene. The ΔMA NLS pseudovirions have leucine substituting for lysine in position 28 of MA. This mutation abrogates nuclear translocation of HIV-1 gag RNA in growth-arrested H9 cells infected with pseudovirions. […]
Cytoplasmic extracts prepared from HIV-1-or pseudovirion-infected H9 cells were adjusted to 0.14 M NaCl, 0.1% Tween 20 and precleared with glutathione-Sepharose beads for 30 min. at room temperature. Karyopherin α was expressed as a fusion protein with glutathione S-transferase (GST) which can bind glutathione beads in solution. […]

CC(=O)c1cc(Nc2cc(C)[n+](C)c(N)n2)cc(C(C)=O)c1 [CNI-0294, 2-Amino-4-(3,5-diacetylphenyl)amino-1,6-dimethylpyrimidinium chloride]
radioactivity immunoprecipitated by anti-MA serum [1]: a significant amount of radioactivity was immunoprecipitated by anti-MA serum | metabolites produced [2]: three minor and one major metabolite | metabolic conversion (drug altered, as judged by peak area) ([2]; 60 min incubation): 43.5% | inhibition of binding of karyopherin α to pseudovirion-derived nucleoprotein complexes [3]: did not inhibit
